According to PubChem BioAssay AID1259407 (Chemical Carcinogenesis Research Information System (CCRIS), 2018):
The source made the active and inactive calls. No rule for the calls is given here.

System: CCRIS mutagenicity, Ames/micronucleus/aberration tests
Experiment: CCRIS mutagenicity studies

Cc1ccc(N=C=O)cc1N=C=O was tested, and the mutagenic call (End Point: IN VITRO CHROMOSOMAL ABERRATIONS, Test System: CHL CELLS, Metabolic Activation: RAT, LIVER, S-9, SODIUM PHENOBARBITAL AND 5,6-BENZOFLAVONE) was “inactive; negative; authors report equivocal results for ploidy changes at the highest dos”, the mutagenic call (End Point: IN VITRO CHROMOSOMAL ABERRATIONS, Test System: CHO CELLS, Metabolic Activation: RAT, LIVER, S-9, AROCLOR 1254) was “inactive; negative; precipitation occurred at 500 and 750 ug/ml” and the mutagenic call (Test System: AMES SALMONELLA TYPHIMURIUM, Strain/Indicator: TA97, Metabolic Activation: HAMSTER, LIVER, S-9, AROCLOR 1254 (10%), Method: PREINCUBATION) was “inactive; negative”. The mutagenic call (Test System: AMES SALMONELLA TYPHIMURIUM, Strain/Indicator: TA97, Metabolic Activation: NONE, Method: PREINCUBATION) was “inactive; negative”, the mutagenic call (Test System: AMES SALMONELLA TYPHIMURIUM, Strain/Indicator: TA97, Metabolic Activation: RAT, LIVER, S-9, AROCLOR 1254 (10%), Method: PREINCUBATION) was “inactive; negative” and the mutagenic call (Test System: AMES SALMONELLA TYPHIMURIUM, Strain/Indicator: TA98, Metabolic Activation: HAMSTER, LIVER, S-9, AROCLOR 1254 (10%), Method: PREINCUBATION) was “active; positive”. For the same compound, the mutagenic call (Test System: AMES SALMONELLA TYPHIMURIUM, Strain/Indicator: TA98, Metabolic Activation: NONE, Method: PREINCUBATION) was “inactive; negative”, the mutagenic call (Test System: AMES SALMONELLA TYPHIMURIUM, Strain/Indicator: TA98, Metabolic Activation: RAT LIVER S-9, AROCLOR 1254 (10 OR 30%), Method: STANDARD PLATE) was “active; positive” and the mutagenic call (Test System: AMES SALMONELLA TYPHIMURIUM, Strain/Indicator: TA98, Metabolic Activation: RAT LIVER S-9, PHENOBARBITAL AND BETA-NAPHTHOFLAVONE, Method: PREINCUBATION) was “inactive; negative”. For the same compound, the mutagenic call (Test System: AMES SALMONELLA TYPHIMURIUM, Strain/Indicator: TA98, Metabolic Activation: RAT, LIVER, S-9, AROCLOR 1254 (10%), Method: PREINCUBATION) was “active; positive”, the mutagenic call (Test System: AMES SALMONELLA TYPHIMURIUM, Strain/Indicator: TA100, Metabolic Activation: HAMSTER, LIVER, S-9, AROCLOR 1254 (10%), Method: PREINCUBATION) was “active; positive” and the mutagenic call (Test System: AMES SALMONELLA TYPHIMURIUM, Strain/Indicator: TA100, Metabolic Activation: NONE, Method: PREINCUBATION) was “inactive; negative”. The mutagenic call (Test System: AMES SALMONELLA TYPHIMURIUM, Strain/Indicator: TA100, Metabolic Activation: RAT, LIVER, S-9, AROCLOR 1254 (10%), Method: PREINCUBATION) was “active; positive”, the mutagenic call (Test System: AMES SALMONELLA TYPHIMURIUM, Strain/Indicator: TA1535, Metabolic Activation: HAMSTER, LIVER, S-9, AROCLOR 1254 (10%), Method: PREINCUBATION) was “inactive; negative” and the mutagenic call (Test System: AMES SALMONELLA TYPHIMURIUM, Strain/Indicator: TA1535, Metabolic Activation: NONE, Method: PREINCUBATION) was “inactive; negative”. For the same compound, the mutagenic call (Test System: AMES SALMONELLA TYPHIMURIUM, Strain/Indicator: TA1535, Metabolic Activation: RAT LIVER S-9, PHENOBARBITAL AND BETA-NAPHTHOFLAVONE, Method: PREINCUBATION) was “inactive; negative”, the mutagenic call (Test System: AMES SALMONELLA TYPHIMURIUM, Strain/Indicator: TA1535, Metabolic Activation: RAT, LIVER, S-9, AROCLOR 1254 (10%), Method: PREINCUBATION) was “inactive; negative” and the mutagenic call (Test System: AMES SALMONELLA TYPHIMURIUM, Strain/Indicator: TA1537, Metabolic Activation: NONE, Method: PREINCUBATION) was “inactive; negative”. For the same compound, the mutagenic call (Test System: AMES SALMONELLA TYPHIMURIUM, Strain/Indicator: TA1537, Metabolic Activation: RAT LIVER S-9, AROCLOR 1254 (10 OR 30%), Method: STANDARD PLATE) was “active; positive”, the mutagenic call (Test System: AMES SALMONELLA TYPHIMURIUM, Strain/Indicator: TA1537, Metabolic Activation: RAT LIVER S-9, PHENOBARBITAL AND BETA-NAPHTHOFLAVONE, Method: PREINCUBATION) was “inactive; negative” and the mutagenic call (Test System: E.COLI, Strain/Indicator: WP2UVRA, Metabolic Activation: NONE, Method: PREINCUBATION) was “inactive; negative”. For the same compound, the mutagenic call (Test System: E.COLI, Strain/Indicator: WP2UVRA, Metabolic Activation: RAT LIVER S-9, PHENOBARBITAL AND BETA-NAPHTHOFLAVONE, Method: PREINCUBATION) was “inactive; negative”, the mutagenic call (Test System: MOUSE LYMPHOMA, Strain/Indicator: L5178Y (TK+/TK-), Metabolic Activation: NONE, Method: SUSPENSION/PLATE) was “active; positive” and the mutagenic call (Test System: MOUSE LYMPHOMA, Strain/Indicator: L5178Y (TK+/TK-), Metabolic Activation: RAT, LIVER, S-9, AROCLOR 1254, Method: SUSPENSION/PLATE) was “active; positive”.

Cn1c2ccccc2c2cc([N+](=O)[O-])ccc21 was tested, and the mutagenic call (Test System: AMES SALMONELLA TYPHIMURIUM, Strain/Indicator: TA98, Metabolic Activation: NONE, Method: STANDARD PLATE) was “active; positive”, the mutagenic call (Test System: AMES SALMONELLA TYPHIMURIUM, Strain/Indicator: TA98, Metabolic Activation: RAT LIVER S-9, AROCLOR 1254, Method: STANDARD PLATE) was “active; positive” and the mutagenic call (Test System: AMES SALMONELLA TYPHIMURIUM, Strain/Indicator: TA100, Metabolic Activation: NONE, Method: STANDARD PLATE) was “active; positive”. The mutagenic call (Test System: AMES SALMONELLA TYPHIMURIUM, Strain/Indicator: TA100, Metabolic Activation: RAT LIVER S-9, AROCLOR 1254, Method: STANDARD PLATE) was “active; positive”.
